Laboratory results reported in patent US20090092553A1, “MONOCARBOXYLATE TRANSPORTERS EXPRESSED IN CANCER CELLS” (Xenoport,Inc., priority 2003, published 2009).
Changes are numbered by the printed parent chain.

Legend:
MCT1 [1] = target: T1, MCT1 (Homo sapiens, UniProt P53985); test: HEK cell intracellular pH (BCECF) / phloretin inhibition assay; format: cell-based; details: HEK cells; for effect on the intracellular pH response to lactate: applied together with lactate
T1 sequence (P53985 1-500): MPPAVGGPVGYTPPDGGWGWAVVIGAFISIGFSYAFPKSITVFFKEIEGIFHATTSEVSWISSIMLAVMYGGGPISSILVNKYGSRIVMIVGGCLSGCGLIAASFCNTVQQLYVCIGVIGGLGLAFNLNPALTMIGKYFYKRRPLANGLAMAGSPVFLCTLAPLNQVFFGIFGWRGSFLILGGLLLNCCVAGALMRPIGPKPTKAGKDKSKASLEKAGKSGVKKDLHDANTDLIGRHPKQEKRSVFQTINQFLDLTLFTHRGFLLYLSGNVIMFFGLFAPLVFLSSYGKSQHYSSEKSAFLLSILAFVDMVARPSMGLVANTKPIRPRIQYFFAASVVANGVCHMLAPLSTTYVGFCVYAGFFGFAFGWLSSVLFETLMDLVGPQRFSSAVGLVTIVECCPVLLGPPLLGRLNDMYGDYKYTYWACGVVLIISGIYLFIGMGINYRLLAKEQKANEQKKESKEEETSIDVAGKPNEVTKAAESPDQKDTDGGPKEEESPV
Excerpt: Because MCT1 transports both the carboxylate anion and the corresponding proton, a pH measuring assay was developed to measure net transport of protons into the cytoplasm. Intracellular pH can be measured by a pH-sensitive fluorescent dye such as BCECF. […] In the phloretin inhibition assay, the HEK cells are first exposed to a plurality of solutions containing various concentrations of the test compound (in FIG. 3, the model test compound is lactate) and then to the same solutions to which have been added a set (0.25 mM) concentration of phloretin. Thus, FIG. 3 is a graph of lactate concentration ([L]) versus the percent of maximum pH change found with administration of the highest concentration of the test compound (lactate) alone. […] This is because MCT1 co-transports lactate and a proton into the HEK cells, causing their internal pH to decrease. This pH lowering effect is shown by the characteristic reverse-S-shaped dose response upper curve in FIG. 3. When the cells are exposed to the solutions containing both lactate and phloretin, the phloretin inhibits the lactate uptake by MCT1 and there is little pH change in the cells, as shown by the relatively flat lower curve in FIG. 3. The phloretin inhibition assay can also be used to determine those carboxylic acids that are actively transported MCT substrates from those that are only passively absorbed across the cell membrane. In the latter case, when a passive absorbed acid is applied to HEK cells, there is an intracellular acidification, which occurs both with and without phloretin.
FIG. 4 is a graph of 2-TPGA concentration ([2-TPGA]) versus the relative percent decrease in intracellular pH compared to a standard decrease in intracellular pH caused by exposure of the cells to 20 mM lactate solution. When 0.25 mM phloretin was applied to these cells in addition to 2-TPGA, MCT1 transport was blocked and no significant pH change was detected.
FIG. 5 is a graph of sulfasalazine concentration ([sulfasalazine]) versus the relative percent decrease in intracellular pH compared to a standard decrease in intracellular pH caused by exposure of the cells to 20 mM lactate solution.

MCT4 [2] = target: T2, MCT4 (Homo sapiens, UniProt O15427); details: cited from earlier work
T2 sequence (O15427 1-465): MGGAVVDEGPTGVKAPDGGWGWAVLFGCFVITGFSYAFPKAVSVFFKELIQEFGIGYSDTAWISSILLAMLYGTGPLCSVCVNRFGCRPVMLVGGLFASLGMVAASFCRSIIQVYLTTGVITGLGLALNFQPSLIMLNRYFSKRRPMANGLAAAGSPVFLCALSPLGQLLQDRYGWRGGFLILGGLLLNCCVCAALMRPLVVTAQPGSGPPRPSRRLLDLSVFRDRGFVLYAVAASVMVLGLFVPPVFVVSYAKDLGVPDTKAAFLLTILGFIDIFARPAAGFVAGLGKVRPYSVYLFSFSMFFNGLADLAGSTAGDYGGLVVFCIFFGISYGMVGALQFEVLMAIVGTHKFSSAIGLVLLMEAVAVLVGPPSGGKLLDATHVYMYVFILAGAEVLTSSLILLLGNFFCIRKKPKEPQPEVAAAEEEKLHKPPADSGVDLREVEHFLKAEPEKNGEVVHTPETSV

MCT1 [3] = target: T1, MCT1; details: cited from earlier work
MCT4 [4] = target: T2, MCT4; test: Xenopus oocyte ROMK electrophysiological pH assay, MCT4; format: cell-based; parameters: The complete open reading frame was cloned into a Xenopus oocyte expression plasmid; expressed in transfected cells; host or cells: Xenopus oocytes injected with cRNA
MCT1 [5] = target: T3, MCT1 (Homo sapiens, UniProt P53985, D490E); test: Xenopus oocyte ROMK electrophysiological pH assay, MCT1; format: cell-based
T3 sequence (P53985 1-500 D490E): T1 sequence (P53985 1-500) with D490E

Question: Which “effect on the intracellular pH response to lactate” value (MCT1 [1]) does the source give for O=C(O)c1cc(/N=N/c2ccc(S(=O)(=O)Nc3ccccn3)cc2)ccc1O [sulfasalazine] here?
Answer: Its value is “inhibitor of MCT1”.

Question: With CC(O)C(=O)O (centres unmarked) [lactate] as the compound, how does the affinity for lactate (MCT4 [2]) read?
Answer: The affinity for lactate was roughly 40 mM.

Question: What about the affinity for lactate (MCT1 [3]) of the same compound?
Answer: Its affinity for lactate is roughly 2 mM.

Question: And the “effect on ROMK potassium current” value (MCT4 [4]; oocytes co-expressing ROMK and MCT4, 10 mM lactate solution)?
Answer: Its value is “strong inhibition of the potassium current”.

Question: And the “effect on ROMK potassium current” value (MCT1 [5]; oocytes co-expressing ROMK and MCT1, 10 mM lactate solution)?
Answer: The value was “strong inhibition of the potassium current”.

Question: And the “intracellular pH change when applied alone” value (MCT1 [1])?
Answer: The value was “dose-dependent intracellular acidification”.

Question: Which “effect of co-application with lactate on the potassium current” value (MCT4 [4]; oocytes co-expressing ROMK and MCT4, 350 μM phloretin and 10 mM lactate) does the source give for O=C(CCc1ccc(O)cc1)c1c(O)cc(O)cc1O [phloretin] here?
Answer: The value was “completely blocks the effect of lactate on the potassium current”.

Question: What about the “effect of co-application with lactate on the potassium current” value (MCT1 [5]; oocytes co-expressing ROMK and MCT1, 350 μM phloretin and 10 mM lactate) of the same compound?
Answer: Its value is “completely blocks the effect of lactate on the potassium current”.

Question: What about the “intracellular pH change when applied alone” value (MCT1 [1]) of the same compound?
Answer: Its value is “does not cause an intracellular pH change”.

Question: And the “effect on the intracellular pH response to lactate” value (MCT1 [1])?
Answer: Its value is “completely blocks the lactate response”.

Question: With O=C(O)C(=O)c1cccs1 [Compound 2-TPGA, 2-thiophene glyoxylic acid] as the compound, how does the “substrate status from intracellular pH change with and without 0.25 mM phloretin” value (MCT1 [1]; FIG. 4) read?
Answer: The value was “substrate for, and is actively transported by, MCT1”.
